Values after ≈ are worked out from the molar mass of the structure shown. Counter-ions that a name gives are not always drawn.
Key:
[1] = system: Candida lipase, Genzyme (Enzyme G); assay: Asymmetric hydrolysis in a multiphasic bioreactor with Enzyme G
Protocol: 3.0 grams of the lipase were dissolved in 500 mls of distilled water; this solution was recirculated in an ultrafiltration mode from the shell into the lumen and back to the reservoir for 30 minutes. The ultrafiltrate was then collected until the reservoir was empty, and methyl isobutyl ketone (MIBK) was then pumped into the shell and recirculated at 400-450 ml/min with a 5-7 psig shell pressure to remove any remaining enzyme solution from the shell.
A reactor was prepared as described in Example 6.2.2.5 (naproxen) using essentially the same mode of loading the enzyme, 3.0 grams of Candida lipase (Enzyme G, from Genzyme Corporation) were ultrafiltered from the shell into the lumen. […] The module was then drained.
No organic solvent was required as the substrate is already a water-immiscible liquid. Phosphate buffer was immediately pumped into the lumen and recirculated at 400-450 ml/min.
The reaction was monitored by following acid production based on hydroxide titration data. […] The aqueous buffer was replaced after 76 minutes and acidified to pH 2.0 with concentrated HCl in the presence of about 200 ml of chloroform.

[2] = Solubility of esters, absorbance of saturated solutions at 262 nm; format: physicochemical; conditions: for Solubility: saturated solution, pH 7 (50 mM phosphate buffer), room temperature; for water solubility: in water
[3] = system: Protease XXIII from Aspergillus oryzae (Enzyme A); assay: Homogeneous aqueous enzymatic resolution (ester hydrolysis) with Enzyme A; format: biochemical; conditions: 100 mg enzyme A
Protocol: No further purification was performed.

[4] = system: protease Prozyme 6 (Enzyme F); assay: Homogeneous aqueous enzymatic resolution with Enzyme F; format: biochemical, Aspergillus oryzae; conditions: for % e.e.: naproxen acid product (R), 100 mg Prozyme 6, pH 7.0, 25 C
Protocol: The enzymatic reaction mixtures were capped and briefly shaken until all the substrate had dissolved, and the enzyme had completely dissolved or dispersed. […] Evaporation of the ether left a white solid. The result is summarized below in Table 11 Rotations were measured at c=1 in CHCl3.
The enzymatic reaction mixtures were capped and briefly shaken until all the substrate had dissolved, and the enzyme had completely dissolved or dispersed. […] Evaporation of the ether left a white solid. Rotations were measured at c=1 in CHCl3.
The reaction was started by adding 100 mg of the protease (F) from the fungus Aspergillus oryzae (from Amano Enzyme Corporation, Prozyme 6, 60,000 units per mg of solid).
After 20 hours at room temperature, the solution was acidified to pH 2 and extracted with 3 volumes of diethyl ether. The aqueous phase was saved for subsequent workup. The ether phase was washed with two volumes of distilled water and then one volume of saturated sodium chloride, and then it was dried over MgSO4 and subsequently evaporated to dryness. The resolved ibuprofen product recovered was 930 mg of white powder, indicating 45% conversion of racemic ester to acid. The optical rotation was -0.580° (measured at c=1 in ethanol), indicating the R isomer of ibuprofen.
35 mg of protease Enzyme F, as the commercial preparation Prozyme 6, were added to the aqueous solution. The reaction flask was capped, and briefly shaken until all the enzyme had dissolved or dispersed. […] The resulting mixture was diluted with one volume of water and was extracted with diethyl ether (2 times 200 ml). The ether layers were combined and backwashed with water (2 times 200 ml), saturated NaCl solution (200 ml), and then dried over MgSO4.
In this control run, a 0.5M ester solution of (1) was prepared in 325 ml of 0.1M sodium phosphate buffer (pH 7.0). The reaction was started by adding 3 gm of the above enzyme (F). The pH was controlled at 7.0 with 8.22M sodium hydroxide. After 6.49 hours at 30° C., 6.63 ml of hydroxide were added, indicating 37.7% conversion. The reaction was allowed to continue overnight and, after 23.1 hours, a total of 7.2 ml of sodium hydroxide were added, indicating 40.9% conversion.

[5] = system: Protease XIV from Streptomyces griseus (Enzyme I); assay: Rates of hydrolysis of the two enantiomers, pH stat, Enzyme I; format: biochemical; conditions: for Rate (hydrolysis): 50 mM ester, pH 7.6
Protocol: (§1) 15 ml of a solution containing one enantiomer of the ester at a concentration of 50 mM, and Na3 PO4 buffer at 50 mM and pH 7.6 was observed using a pH stat device. 0.1 ml of a 50 mg/ml solution of protease enzyme I, made up from the commercially available preparation in 50 mM Na3 PO4 buffer at pH 7.6, were added. Rates of hydrolysis of both enantiomers of the ester compound were determined for the protease enzyme. The ratio of the rates of hydrolysis for the two enantiomers for the two enantiomers with respect to the enzyme indicate the stereospecificity of that enzyme's hydrolytic action on the racemic mixture of the ester. No evidence for the hydrolysis of the acetylthio ester portion of the substrate molecule was found.

[6] = target: T1, Protease XXVII "Nagarse" (Enzyme D) (Bacillus amyloliquefaciens, UniProt P00782); assay: Rates of hydrolysis of the two enantiomers, pH stat, Enzyme D; format: biochemical; conditions: for Rate (hydrolysis): 50 mM ester, pH 7.6
T1 construct: purchased Protease XXVII
T1 sequence (P00782 108-382): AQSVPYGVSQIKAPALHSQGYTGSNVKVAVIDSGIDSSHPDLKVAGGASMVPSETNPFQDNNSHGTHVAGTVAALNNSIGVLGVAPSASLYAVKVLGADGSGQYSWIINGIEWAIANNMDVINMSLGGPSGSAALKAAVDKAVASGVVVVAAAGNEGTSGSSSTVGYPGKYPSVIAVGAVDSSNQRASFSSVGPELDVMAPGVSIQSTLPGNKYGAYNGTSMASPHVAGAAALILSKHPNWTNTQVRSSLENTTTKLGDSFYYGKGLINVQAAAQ
Protocol: as §1, with “of” for “of protease”, “D,” for “I,”, “the” for “the protease”, “thioacetyl” for “acetylthio”

[7] = system: Protease XXIII from Aspergillus oryzae (Enzyme A); assay: Rates of hydrolysis of the two enantiomers, pH stat, Enzyme A; format: biochemical; conditions: for Rate (hydrolysis): 50 mM ester, pH 7.6
Protocol: 15 ml of a solution containing one enantiomer of the ester at a concentration of 50 mM, and Na3 PO4 buffer at 50 mM and pH 7.6 was observed using a pH stat device. 0.1 ml of a 50 mg/ml solution of enzyme A, made up from
as §1, with “the” for “15 ml of a solution containing one enantiomer of the ester at a concentration of 50 mM, and Na3 PO4 buffer at 50 mM and pH 7.6 was observed using a pH stat device. 0.1 ml of a 50 mg/ml solution of protease enzyme I, made up from the”, “the” for “the protease”

[8] = target: T2, Protease XXIV bacterial protease (Enzyme J) (Bacillus licheniformis, UniProt P00780); assay: Rates of hydrolysis of the two enantiomers, pH stat, Enzyme J; format: biochemical; conditions: for Rate (hydrolysis): 50 mM ester, pH 7.6
T2 sequence (P00780 106-379): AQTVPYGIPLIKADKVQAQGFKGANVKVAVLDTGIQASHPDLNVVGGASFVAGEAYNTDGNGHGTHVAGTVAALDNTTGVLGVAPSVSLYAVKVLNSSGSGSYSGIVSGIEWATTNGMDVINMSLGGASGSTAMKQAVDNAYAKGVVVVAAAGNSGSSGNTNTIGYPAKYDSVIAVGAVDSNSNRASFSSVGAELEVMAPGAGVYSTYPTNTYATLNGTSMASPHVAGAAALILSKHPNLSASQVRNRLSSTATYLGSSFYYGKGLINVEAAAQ
Protocol: as §1, with “Enzyme J,” for “protease enzyme I,”, “the” for “the protease”

[9] = target: T3, Protease VIII "Subtilopeptidase A" (Enzyme B) (Bacillus licheniformis, UniProt P00780); assay: Rates of hydrolysis of the two enantiomers, pH stat, Enzyme B; format: biochemical; conditions: for Rate (hydrolysis): 50 mM ester, 50 mM Na3PO4 buffer pH 7.6
T3 sequence (P00780 106-379): T2 sequence (P00780 106-379)
Protocol: as §1, with “of” for “of protease”, “B,” for “I,”, “the” for “the protease”

[10] = system: Candida lipase, Sigma L-1754 (Enzyme H); assay: Asymmetric hydrolysis in a multiphasic bioreactor with Enzyme H
Protocol: The enzyme solution was recirculated from the shell side to the lumen side and back to the solution reservoir in an ultra-filtration mode. […] The procedure was completed in one hour.
The recirculation rate was 400 ml/min and the average pressure on the shell compartment was kept at 6.5 psi by adjusting a throttling valve at the shell side exit. On the lumen side 1 liter of 0.05M K2 PO4 was recirculated at a rate of 400 ml/min. The pH of the aqueous reservoir was kept at 7.0 by addition of 1M NaOH. The reactor was run continuously for 6.8 days.
The reaction progress and rate were monitored by following the caustic consumption.

COC(=O)C(C)c1ccc2cc(OC)ccc2c1 (racemic) [Compound 18, Methyl Ester of 2-(6-Methoxy-2-naphthyl)propanoic Acid]
average rate (hydrolysis) ([1]; first 45 minutes, 0.75M ester in MIBK, pH 8.50, 3.0 grams lipase): 35 µmol/h

CC(C)Cc1ccc(C(C)C(=O)OCCN(C)C)cc1 (centres unmarked) [2-(N,N-dimethylamino)ethyl ester of ibuprofen, reference compound]
Solubility [2]: 10 mM (≈ 2770 µg/mL)

COc1ccc2cc(C(C)C(=O)OCS(=O)(=O)O)ccc2c1 (centres unmarked) [Compound 9, Sodium Salt of Sulfomethyl Ester of 2-(6-Methoxy-2-naphthyl)propanoic Acid]
conversion (enzymatic hydrolysis) ([3]; 2.0 gm ester in 400 ml 50 mM sodium phosphate pH 7.5, 25 degrees, 16 hours): 18%
enantiomeric excess of R isomer of naproxen (acid product) ([3]; pH 7.5, 25 degrees, 16 hours): 61.2%
enantiomeric excess of S isomer of Naproxen (from unconverted ester hydrolysed at pH 12) ([3]; pH 7.5, 25 degrees, 16 hours): 45.5%

CC(C)Cc1ccc(C(C)C(=O)OCC[N+](C)(C)C)cc1 (centres unmarked) [Compound 10, Iodide Salt of 2-(N,N,N-Trimethylammonium)ethyl Ester of 2-(4-Isobutylphenyl)propanoic Acid]
Solubility [2]: 2180 mM
% e.e. ([3]; acid product (R), pH 7.0, 20 hours, 20-22 C): > 99%

COc1ccc2cc(C(C)C(=O)OCC[N+](C)(C)C)ccc2c1 (centres unmarked) [Compound 11, Methyl Sulfate Salt of 2-(N,N,N-Trimethylammonium)ethyl Ester of 2-(6-Methoxy-2-naphthyl)propanoic Acid]
% e.e. ([4]; 18 hours): 34.0%

COc1ccc2cc(C(C)C(=O)OCCC[N+](C)(C)C)ccc2c1 (centres unmarked) [Compound 12, Methyl Sulfate Salt of 3-(N,N,N-Trimethylammonium)propyl Ester of 2-(6-Methoxy-2-naphthyl)propanoic Acid]
% CONVERSION ([4]; 100 mg Prozyme 6, 10 mmol ester in 100 ml 0.2M phosphate buffer pH 7.0, 25 C, 18 hours): 34.0%
% e.e. ([4]; 18 hours): 21.6%
Solubility [2]: 1610 mM

CC(=O)SC[C@@H](C)C(=O)OCS(=O)(=O)O [Compound 14, Potassium Salt of the Sulfomethyl Ester of D-(-)-S-3-Acetylthio-2-methylpropanoic Acid]
Rate (hydrolysis) [5]: 63 umols/hr/mg
Rate (hydrolysis) [6]: 27 umols/hr/mg
Rate (hydrolysis) [7]: 5.3 umols/hr/mg
Rate (hydrolysis) [8]: 61 umols/hr/mg
Rate (hydrolysis) [9]: 65 umols/hr/mg

CC(=O)SC[C@H](C)C(=O)OCS(=O)(=O)O [Compound 15, Potassium Salt of the Sulfomethyl Ester of L-(+)-S-3-Acetylthio-2-methylpropanoic Acid]
Rate Ratio L/D [5]: 1.7
Rate (hydrolysis) [5]: 105 umols/hr/mg
Rate Ratio L/D [6]: 1.1
Rate (hydrolysis) [6]: 29 umols/hr/mg
Rate Ratio L/D [7]: 2.3
Rate (hydrolysis) [7]: 12 umols/hr/mg
Rate Ratio L/D [8]: 1.1
Rate (hydrolysis) [8]: 65 umols/hr/mg
Rate Ratio L/D [9]: 2.1
Rate (hydrolysis) [9]: 135 umols/hr/mg

CC(Oc1ccc(Cl)cc1)C(=O)OCS(=O)(=O)O (centres unmarked) [Compound 17, Sodium Salt of the Sulfomethyl Ester of 2-(4-Chlorophenoxy)propanoic Acid]
reaction completion ([4]; 35 mg Prozyme 6, 10 mmol ester in 100 ml 0.2M sodium phosphate pH 7.0, 30 C, 1 hour): 22.5%

CC(C)Cc1ccc(C(C)C(=O)OCC(F)(F)F)cc1 (centres unmarked) [Compound 19, 2,2,2-Trifluoroethyl Ester of 2-(4-Isobutylphenyl)propanoic Acid]
water solubility [2]: roughly 0.4 mM
Solubility [2]: 0.4 mM (≈ 115 µg/mL)
average hydrolytic rate ([1]; first 60 minutes, neat liquid ester, pH 7.7, 3.0 grams lipase): 160 µmol/min
conversion to acid ([1]; over the next 76 hours): about 9.8%
average hydrolysis rate ([1]; over the next 76 hours, by titrimetry): 21 µmol/min

CCCCCCCCOC(=O)C(C)Cl (centres unmarked) [Compound 20, Octyl Ester of 2-Chloropropanoic Acid]
water solubility [2]: approximately 1.2 mM
Solubility [2]: 1.2 mM (≈ 265 µg/mL)
initial ester hydrolyzed ([10]; at termination, 6.8 days): 41%
rate of ester hydrolysis ([10]; at the beginning of the experiment, pH 7.0, 30 grams lipase): 186 µmol/min
rate of ester hydrolysis ([10]; at the end (6.8 days)): 25 µmol/min

COCCOC(=O)C(C)c1ccc(CC(C)C)cc1 (centres unmarked) [Methoxyethyl ester of ibuprofen, reference compound]
Solubility [2]: 0.18 mM (≈ 47.6 µg/mL)

From patent publication US5196568A, “Compounds useful in enzymatic resolution systems and their preparation” (priority 1988, dated 1993)
